Here are results for 4 compounds from US20230265151A1, “GIP/GLP1 CO-AGONIST COMPOUNDS” (priority 2020, published 2023).

What all share (format): cell-based
In one test the target is T1, hGIPR (Homo sapiens, UniProt P48546).
T1 construct: expressed in transfected cells
T1 sequence (P48546 22-466): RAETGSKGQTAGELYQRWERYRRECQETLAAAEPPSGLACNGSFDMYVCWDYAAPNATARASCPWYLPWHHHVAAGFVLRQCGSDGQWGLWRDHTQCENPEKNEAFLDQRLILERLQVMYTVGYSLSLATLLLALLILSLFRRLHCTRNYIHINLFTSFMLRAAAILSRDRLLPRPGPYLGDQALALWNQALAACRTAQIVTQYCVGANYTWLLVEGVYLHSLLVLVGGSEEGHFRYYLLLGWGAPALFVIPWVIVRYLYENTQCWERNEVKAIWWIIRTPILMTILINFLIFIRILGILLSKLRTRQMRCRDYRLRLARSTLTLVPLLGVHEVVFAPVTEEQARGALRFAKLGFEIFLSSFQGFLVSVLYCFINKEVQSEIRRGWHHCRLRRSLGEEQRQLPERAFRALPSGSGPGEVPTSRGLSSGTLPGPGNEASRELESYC
Put plainly: Functional cAMP formation (HTRF) in HEK-293 clonal cells expressing hGIPR, 0.1% bovine casein, without or with 1.0% human serum albumin. Conditions: for EC50: geometric mean. In short, it runs like this: (§1)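 Cells were stimulated with peptide for 30 min at 37° C, then lysed in buffer carrying cAMP-d2 and anti-cAMP Eu3+-cryptate for a competitive HTRF read after at least 60 min at room temperature. The 665/620 nm ratio was converted to nM cAMP against a standard curve.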

The next test concerns the target T2, hGCGR (Homo sapiens, UniProt P47871).
T2 construct: expressed in transfected cells
As to the kind of experiment: Functional cAMP formation (HTRF) in HEK-293 clonal cells expressing hGCGR, 0.1% bovine casein, without or with 1.0% human serum albumin. As to conditions: geometric mean. In short, it runs like this: as §1

The target in the next test is hGLP-1R (Homo sapiens, UniProt P43220). As to the kind of experiment: Functional cAMP formation (HTRF) in HEK-293 clonal cells expressing hGLP-1R, 0.1% bovine casein, without or with 1.0% human serum albumin. The arrangement: expressed in transfected cells. Conditions: for EC50: geometric mean. In outline: as §1
Chain of hGLP-1R (P43220 24-463): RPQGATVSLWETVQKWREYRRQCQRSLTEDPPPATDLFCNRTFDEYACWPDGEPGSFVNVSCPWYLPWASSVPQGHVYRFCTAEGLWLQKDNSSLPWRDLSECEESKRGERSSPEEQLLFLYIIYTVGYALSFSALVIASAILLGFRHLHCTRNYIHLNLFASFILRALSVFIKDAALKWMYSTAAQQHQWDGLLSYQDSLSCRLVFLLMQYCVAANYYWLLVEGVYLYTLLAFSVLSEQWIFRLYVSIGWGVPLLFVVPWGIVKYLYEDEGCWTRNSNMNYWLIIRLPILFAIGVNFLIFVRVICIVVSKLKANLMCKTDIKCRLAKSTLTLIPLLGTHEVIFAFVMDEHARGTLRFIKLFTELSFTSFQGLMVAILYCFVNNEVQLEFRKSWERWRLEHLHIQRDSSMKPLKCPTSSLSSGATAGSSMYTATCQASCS
[1] abbreviates: HEK293, 0.1% bovine casein and 1.0% human serum albumin, 37° C., percent of maximal response to GIP(1-42)NH2, read-out: hGIPR Emax, % ± SEM.
[2] abbreviates: cAMP, incubated at 37° C., 0.1% bovine casein (no human serum albumin), read-out: hGIPR EC50, nM (SEM, n).
[3] abbreviates: 0.1% bovine casein and 1.0% human serum albumin, 37° C., read-out: hGCGR EC50, nM (SEM, n).
[4] abbreviates: cAMP, incubated at 37° C., 0.1% bovine casein (no human serum albumin), read-out: hGCGR EC50, nM (SEM, n).
[5] abbreviates: 0.1% bovine casein and 1.0% human serum albumin, 37° C., read-out: hGLP-1R EC50, nM (SEM, n).
[6] abbreviates: HEK293, 0.1% bovine casein and 1.0% human serum albumin, 37° C., percent of maximal response to GLP-1(7-36)NH2, read-out: hGLP-1R Emax, % ± SEM.

SMILES strings stand for the structures. Read-outs that look alike come from different tables or passages of the source.

T2 sequence (P47871 26-477): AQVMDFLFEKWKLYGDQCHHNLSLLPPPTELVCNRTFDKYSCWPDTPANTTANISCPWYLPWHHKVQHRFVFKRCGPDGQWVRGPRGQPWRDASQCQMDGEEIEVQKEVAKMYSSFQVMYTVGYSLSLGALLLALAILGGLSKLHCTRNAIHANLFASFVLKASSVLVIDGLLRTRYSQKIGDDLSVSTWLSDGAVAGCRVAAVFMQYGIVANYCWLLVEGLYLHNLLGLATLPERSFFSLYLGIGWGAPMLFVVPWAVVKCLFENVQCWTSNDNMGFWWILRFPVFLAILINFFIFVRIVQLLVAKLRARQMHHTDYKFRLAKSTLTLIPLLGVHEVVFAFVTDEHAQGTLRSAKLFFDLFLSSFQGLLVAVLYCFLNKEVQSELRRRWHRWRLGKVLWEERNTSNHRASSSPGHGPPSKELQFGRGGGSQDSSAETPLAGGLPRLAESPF

Turning to `CC[C@H](C)[C@H](NC(=O)[C@H](CCCN)NC(=O)[C@H](CC(=O)O)NC(=O)[C@H](CC(C)C)NC(=O)[C@](C)(CC(C)C)NC(=O)[C@@H](NC(=O)C(C)(C)NC(=O)[C@@H](NC(=O)[C@H](CC(=O)O)NC(=O)[C@H](CO)NC(=O)[C@@H](NC(=O)[C@](C)(Cc1ccccc1F)NC(=O)[C@@H](NC(=O)CNC(=O)[C@H](CCC(=O)O)NC(=O)C(C)(C)NC(=O)[C@@H](N)Cc1ccc(O)cc1)[C@@H](C)O)[C@@H](C)O)C(C)C)[C@@H](C)CC)C(=O)N[C@@H](C)C(=O)N[C@@H](CCC(N)=O)C(=O)NC(C)(C)C(=O)N[C@@H](CCC(=O)O)C(=O)N[C@@H](Cc1ccccc1)C(=O)N[C@H](C(=O)N[C@@H](CCCCNC(=O)COCCOCCNC(=O)COCCOCCNC(=O)CC[C@H](NC(=O)CCCCCCCCCOc1ccc(C(=O)O)cc1)C(=O)O)C(=O)N[C@@](C)(Cc1ccc(O)cc1)C(=O)N[C@@H](CC(C)C)C(=O)N[C@H](C(=O)N[C@@H](CCCCNC(=O)COCCOCCNC(=O)COCCOCCNC(=O)CC[C@H](NC(=O)CCCCCCCCCOc1ccc(C(=O)O)cc1)C(=O)O)C(=O)NCC(=O)NCC(=O)N1CCC[C@H]1C(=O)N[C@@H](CO)C(=O)N[C@@H](CO)C(=O)NCC(=O)N[C@@H](C)C(=O)N1CCC[C@H]1C(=O)N1CCC[C@H]1C(=O)N1CCC[C@H]1C(=O)N[C@@H](CO)C(N)=O)[C@@H](C)CC)[C@@H](C)CC` [Example 308], the maximal effect (Emax) came out at 117% at hGIPR (HEK293, read-out: hGIPR Emax, % ± SEM, cAMP, 37° C., 0.1% bovine casein, percent of maximal response to GIP(1-42)NH2, arithmetic mean); 92.2% at hGLP-1R (HEK293, read-out: hGLP-1R Emax, % ± SEM, 0.1% bovine casein and 1.0% human serum albumin, 37° C., percent of maximal response to GLP-1(7-36)NH2); 98% on hGLP-1R (HEK293, read-out: hGLP-1R Emax, % ± SEM, cAMP, 37° C., 0.1% bovine casein, percent of maximal response to GLP-1(7-36)NH2, arithmetic mean). Moreover, the EC50 on hGIPR (hGIPR EC50, nM (SEM, n), cAMP, 37° C., 0.1% bovine casein (no human serum albumin)) was 0.0551 nM; on hGCGR (hGCGR EC50, nM (SEM, n), 0.1% bovine casein and 1.0% human serum albumin, 37° C.), greater than 9950 nM; on hGCGR (hGCGR EC50, nM (SEM, n), cAMP, 37° C., 0.1% bovine casein (no human serum albumin)) it was greater than 9950 nM; on hGLP-1R (hGLP-1R EC50, nM (SEM, n), cAMP, 37° C., 0.1% bovine casein (no human serum albumin)), 0.689 nM.
For the compound `CC[C@H](C)[C@H](NC(=O)[C@H](CC(C)C)NC(=O)[C@](C)(Cc1ccc(O)cc1)NC(=O)[C@@H](CCC(=O)O)NC(=O)[C@@H](NC(=O)[C@H](Cc1cccc2ccccc12)NC(=O)[C@H](CCC(=O)O)NC(=O)C(C)(C)NC(=O)[C@H](CCC(N)=O)NC(=O)[C@H](C)NC(=O)[C@H](CCCCNC(=O)COCCOCCNC(=O)COCCOCCNC(=O)CC[C@H](NC(=O)CCCCCCCCCCCCC(=O)O)C(=O)O)NC(=O)[C@H](CCCN)NC(=O)[C@H](CC(=O)O)NC(=O)[C@H](CC(C)C)NC(=O)[C@](C)(CC(C)C)NC(=O)[C@@H](NC(=O)[C@H](CO)NC(=O)[C@H](Cc1ccncc1)NC(=O)[C@H](CC(=O)O)NC(=O)[C@H](CO)NC(=O)[C@@H](NC(=O)[C@](C)(Cc1ccccc1F)NC(=O)[C@@H](NC(=O)CNC(=O)[C@H](CCC(=O)O)NC(=O)C(C)(C)NC(=O)[C@@H](N)Cc1ccc(O)cc1)[C@@H](C)O)[C@@H](C)O)[C@@H](C)CC)[C@@H](C)CC)C(=O)N[C@@H](CCC(=O)O)C(=O)NCC(=O)NCC(=O)N[C@@H](CCCCNC(=O)COCCOCCNC(=O)COCCOCCNC(=O)CC[C@H](NC(=O)CCCCCCCCCCCCC(=O)O)C(=O)O)C(=O)N[C@@H](CO)C(=O)N[C@@H](CO)C(=O)NCC(=O)N[C@@H](C)C(=O)N1CCC[C@H]1C(=O)N1CCC[C@H]1C(=O)N1CCC[C@H]1C(=O)N[C@@H](CO)C(N)=O` [Example 66], the Emax came out at 90.6 ± 3.37% on hGIPR (setting [1]); 93.5 ± 1.39% on hGIPR (HEK293, percent of maximal response to GIP(1-42)NH2, 37° C., 0.1% bovine casein, arithmetic mean, read-out: hGIPR Emax, % ± SEM); 93 ± 2.36% at hGLP-1R (setting [6]). Further, the EC50 was 0.0168 nM on hGIPR (setting [2]), greater than 9950 nM on hGCGR (setting [3]), greater than 9950 nM on hGCGR (setting [4]) and 27 nM at hGLP-1R (setting [5]).
For the compound `CC[C@H](C)[C@H](NC(=O)[C@H](CC(C)C)NC(=O)[C@](C)(Cc1ccc(O)cc1)NC(=O)[C@H](CCCCNC(=O)COCCOCCNC(=O)COCCOCCNC(=O)[C@@H](N)CCCCNC(=O)CCCCCCCCCCCCC(=O)O)NC(=O)[C@@H](NC(=O)[C@H](Cc1ccccc1)NC(=O)[C@H](CCC(=O)O)NC(=O)C(C)(C)NC(=O)[C@H](CCC(N)=O)NC(=O)[C@H](C)NC(=O)[C@H](CCCCNC(=O)COCCOCCNC(=O)COCCOCCNC(=O)[C@@H](N)CCCCNC(=O)CCCCCCCCCCCCC(=O)O)NC(=O)[C@H](CCCN)NC(=O)[C@H](CC(=O)O)NC(=O)[C@H](CC(C)C)NC(=O)[C@](C)(CC(C)C)NC(=O)[C@@H](NC(=O)[C@H](CO)NC(=O)[C@H](Cc1ccncc1)NC(=O)[C@H](CC(=O)O)NC(=O)[C@H](CO)NC(=O)[C@@H](NC(=O)[C@](C)(Cc1ccccc1F)NC(=O)[C@@H](NC(=O)CNC(=O)[C@H](CCC(=O)O)NC(=O)C(C)(C)NC(=O)[C@@H](N)Cc1ccc(O)cc1)[C@@H](C)O)[C@@H](C)O)[C@@H](C)CC)[C@@H](C)CC)C(=O)N[C@@H](CCC(=O)O)C(=O)NCC(=O)NCC(=O)N1CCC[C@H]1C(=O)N[C@@H](CO)C(=O)N[C@@H](CO)C(=O)NCC(=O)N[C@@H](C)C(=O)N1CCC[C@H]1C(=O)N1CCC[C@H]1C(=O)N1CCC[C@H]1C(=O)N[C@@H](CO)C(N)=O` [Example 160], the 50% effective concentration (EC50) on hGIPR (hGIPR EC50, nM (SEM, n), cAMP, incubated at 37° C., 0.1% bovine casein (no human serum albumin)) was 0.0197 nM; on hGCGR (hGCGR EC50, nM (SEM, n), cAMP, incubated at 37° C., 0.1% bovine casein (no human serum albumin)) it was greater than 9950 nM. Further, the Emax on hGLP-1R (HEK293, read-out: hGLP-1R Emax, % ± SEM, percent of maximal response to GLP-1(7-36)NH2, 37° C., 0.1% bovine casein, arithmetic mean) worked out at 93.6%.
With `CC[C@H](C)[C@H](NC(=O)[C@H](CC(C)C)NC(=O)[C@](C)(Cc1ccc(O)cc1)NC(=O)[C@@H](CCC(=O)O)NC(=O)[C@@H](NC(=O)[C@H](Cc1ccccc1)NC(=O)[C@H](CCC(=O)O)NC(=O)C(C)(C)NC(=O)[C@H](CCC(N)=O)NC(=O)[C@H](C)NC(=O)[C@H](CCCCNC(=O)COCCOCCNC(=O)CC[C@H](NC(=O)CCCc1ccc(C(C)(C)C)cc1)C(=O)O)NC(=O)[C@H](CCCN)NC(=O)[C@H](CC(=O)O)NC(=O)[C@H](CC(C)C)NC(=O)[C@](C)(CC(C)C)NC(=O)[C@@H](NC(=O)[C@H](CO)NC(=O)[C@H](Cc1ccncc1)NC(=O)[C@H](CC(=O)O)NC(=O)[C@H](CO)NC(=O)[C@@H](NC(=O)[C@](C)(Cc1ccccc1F)NC(=O)[C@@H](NC(=O)CNC(=O)[C@H](CCC(=O)O)NC(=O)C(C)(C)NC(=O)[C@@H](N)Cc1ccc(O)cc1)[C@@H](C)O)[C@@H](C)O)[C@@H](C)CC)[C@@H](C)CC)C(=O)N[C@@H](CCC(=O)O)C(=O)NCC(=O)NCC(=O)N1CCC[C@H]1C(=O)N[C@@H](CO)C(=O)N[C@@H](CO)C(=O)NCC(=O)N[C@@H](C)C(=O)N1CCC[C@H]1C(=O)N1CCC[C@H]1C(=O)N1CCC[C@H]1C(=O)N[C@@H](CO)C(=O)N[C@@H](CCCCNC(=O)COCCOCCNC(=O)CC[C@H](NC(=O)CCCc1ccc(C(C)(C)C)cc1)C(=O)O)C(N)=O` [Example 209], the EC50 on hGIPR (0.1% bovine casein and 1.0% human serum albumin, 37° C., read-out: hGIPR EC50, nM (SEM, n)) was 0.173 nM; at hGIPR (setting [2]), 0.0133 nM; on hGCGR (setting [3]) it was greater than 9950 nM; at hGCGR (setting [4]), greater than 9950 nM; on hGLP-1R (setting [5]), 1.16 nM; at hGLP-1R (cAMP, incubated at 37° C., 0.1% bovine casein (no human serum albumin), read-out: hGLP-1R EC50, nM (SEM, n)) it was 0.235 nM. Moreover, the maximum response (Emax) on hGIPR (setting [1]) was 90.8%; at hGLP-1R (setting [6]) it was 109%; on hGLP-1R (HEK293, percent of maximal response to GLP-1(7-36)NH2, 37° C., 0.1% bovine casein, arithmetic mean, read-out: hGLP-1R Emax, % ± SEM), 100%.
